In one assay the target is T1, PASK (UniProt #Q96RG2; human recombinant N-terminal GST tagged construct, residues 879-1323) (Homo sapiens, UniProt Q96RG2).
T1 construct: human recombinant N-terminal GST tagged construct, residues 879-1323; GST (N); host or cells: insect cells
The assay is described as follows: PASK ATP Radiochemical Assay. It is filed as biochemical. The conditions noted are these: 33P-ATP, Myelin Basic Protein substrate, 120 min at room temperature, read-out: IC50 Kinase Domain. Here is the method: Biochemical Assay for hPASK Activity
PASK ATP Radiochemical Assay
Test compounds in DMSO are then added and the mixture, followed by delivery of ^33P-ATP (specific activity 0.01 μCi/μl final) to initiate the reaction. […] The entire reaction mixture is washed through onto a P81 Phosphocellulose paper and washed three times for 10 minutes in 75 mM phosphoric acid and once in methanol prior to drying and scintillation counting.

The next assay has as its target T2, PASK (Invitrogen) (Homo sapiens, UniProt Q96RG2).
T2 construct: IC50 Kinase Domain; purchased Invitrogen
The assay is described as follows: PAS Kinase FRET Assay. The conditions noted are these: PAS kinase TR-FRET assay (665 nm/615 nm), 2 hours at 25° C.; read-out: IC50 Kinase Domain. It is filed as biochemical. On the technique in general: Time-resolved FRET reads energy transfer from a long-lived donor to a nearby acceptor.

T2 sequence (Q96RG2 999-1251 limits assumed): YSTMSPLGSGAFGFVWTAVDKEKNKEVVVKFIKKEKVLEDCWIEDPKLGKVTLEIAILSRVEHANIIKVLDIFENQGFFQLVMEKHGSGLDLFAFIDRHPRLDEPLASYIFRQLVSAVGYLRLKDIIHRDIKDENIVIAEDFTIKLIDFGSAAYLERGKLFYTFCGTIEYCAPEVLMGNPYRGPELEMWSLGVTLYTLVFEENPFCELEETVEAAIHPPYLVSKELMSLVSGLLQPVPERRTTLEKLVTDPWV
T1 sequence (Q96RG2 879-1323, stated change not applied): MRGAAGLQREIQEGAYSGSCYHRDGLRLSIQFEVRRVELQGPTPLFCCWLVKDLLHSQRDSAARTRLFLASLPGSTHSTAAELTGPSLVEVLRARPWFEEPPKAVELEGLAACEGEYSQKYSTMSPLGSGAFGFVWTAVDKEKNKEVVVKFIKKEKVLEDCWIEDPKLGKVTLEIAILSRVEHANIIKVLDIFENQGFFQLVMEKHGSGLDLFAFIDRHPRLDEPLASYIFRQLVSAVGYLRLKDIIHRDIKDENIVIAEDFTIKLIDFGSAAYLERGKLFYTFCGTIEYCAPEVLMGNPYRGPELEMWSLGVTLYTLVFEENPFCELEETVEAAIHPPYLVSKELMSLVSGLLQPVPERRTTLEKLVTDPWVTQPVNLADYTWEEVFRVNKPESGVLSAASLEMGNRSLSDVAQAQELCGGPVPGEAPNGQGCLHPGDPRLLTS

One may read the IC50 as the concentration needed to halve the response being measured. With `CC[C@H](C)N(C)c1nc2cc(C(=O)O)ccc2nc1-c1cc2cc(F)ccc2o1` [Example 69, (S)-3-(sec-Butyl(methyl)amino)-2-(5-fluorobenzofuran-2-yl)quinoxaline-6-carboxylic acid], the 50% inhibitory concentration (IC50) at PASK and on PASK (Invitrogen) was < 10 µM each time.
In the case of `C[C@H]1CCCCN1c1nc2cc(C(=O)O)ccc2nc1-c1ccc2[nH]ccc2c1` [Example 73, (S)-2-(1H-Indol-5-yl)-3-(2-methylpiperidin-1-yl)quinoxaline-6-carboxylic acid], the IC50 at PASK and at PASK (Invitrogen) was < 10 µM throughout.
As to `CC[C@@H](C)N(C)c1nc2cc(C(=O)O)ccc2nc1-c1cc2cc(F)ccc2o1` [Example 74, (R)-3-(sec-Butyl(methyl)amino)-2-(5-fluorobenzofuran-2-yl)quinoxaline-6-carboxylic acid], the half-maximal inhibitory concentration (IC50) on PASK and at PASK (Invitrogen) was < 10 µM each time.
With `Cc1cc2cc(-c3nc4ccc(C(=O)O)cc4nc3N3CCC[C@@H]3C)ccc2[nH]1` [Example 75, 2-(2-Methyl-1H-indol-5-yl)-3-[(2S)-2-methylpyrrolidin-1-yl]quinoxaline-6-carboxylic acid], the half-inhibitory concentration (IC50) at PASK and on PASK (Invitrogen) was < 10 µM throughout.
For `Cc1cc2cc(-c3nc4ccc(C(=O)O)cc4nc3N(C)C(C)C)ccc2[nH]1` [Example 76, 3-[Methyl(propan-2-yl)amino]-2-(2-methyl-M-indol-5-yl)quinoxaline-6-carboxylic acid], the half-inhibitory concentration (IC50) on PASK and at PASK (Invitrogen) was < 10 µM each time.
On to `CC(C)N(C)c1nc2cc(C(=O)O)ccc2nc1-c1ccc(-c2ccccc2)o1` [Example 77, 3-[Methyl(propan-2-yl)amino]-2-(5-phenylfuran-2-yl)quinoxaline-6-carboxylic acid], for which the IC50 on PASK and on PASK (Invitrogen) was < 10 µM throughout.
Turning to `CC(C)N(C)c1nc2cc(C(=O)O)ccc2nc1-c1cc[nH]c1` [Example 81, 3-[Methyl(propan-2-yl)amino]-2-(1H-pyrrol-3-yl)quinoxaline-6-carboxylic acid], the half-inhibitory concentration (IC50) at PASK and at PASK (Invitrogen) was < 10 µM in each case.
`Cc1coc2ccc(-c3nc4ccc(C(=O)O)cc4nc3N(C)C(C)C)cc12` [Example 85, 3-[Methyl(propan-2-yl)amino]-2-(3-methyl-1-benzofuran-5-yl)quinoxaline-6-carboxylic acid]: the IC50 on PASK and at PASK (Invitrogen) was < 10 µM each time.
Turning to `Cc1c[nH]c2ccc(-c3nc4ccc(C(=O)O)cc4nc3N(C)C(C)C)cc12` [Example 86, 3-(Isopropyl(methyl)amino)-2-(3-methyl-1H-indol-5-yl)quinoxaline-6-carboxylic acid], the concentration for half-maximal inhibition (IC50) on PASK and on PASK (Invitrogen) was < 10 µM in each case.
Consider `C[C@@H]1CCCN1c1nc2cc(C(=O)O)ccc2nc1-c1ccc2c(c1)OCO2` [Example 87, (R)-2-(Benzo[d][1,3]dioxol-5-yl)-3-(2-methylpyrrolidin-1-yl)quinoxaline-6-carboxylic acid], for which the IC50 on PASK and on PASK (Invitrogen) was < 10 µM throughout.
On to `Cc1cc2cc(-c3nc4ccc(C(=O)O)cc4nc3N3CCCC[C@@H]3C)ccc2[nH]1` [Example 88, (S)-2-(2-Methyl-1H-indol-5-yl)-3-(2-methylpiperidin-1-yl)quinoxaline-6-carboxylic acid], for which the IC50 at PASK and on PASK (Invitrogen) was < 10 µM each time.
Take `Cc1cc2cc(-c3nc4ccc(C(=O)O)cc4nc3N(C)C3CC3)ccc2[nH]1` [Example 89, 3-[Cyclopropyl(methyl)amino]-2-(2-methyl-1H-indol-5-yl)quinoxaline-6-carboxylic acid]: the 50% inhibitory concentration (IC50) at PASK and on PASK (Invitrogen) was < 10 µM each time.
Regarding `C[C@H]1CCCN1c1nc2cc(C(=O)O)c(O)cc2nc1-c1ccc2[nH]ncc2c1` [Example 93, (S)-7-Hydroxy-2-(1H-indazol-5-yl)-3-(2-methylpyrrolidin-1-yl)quinoxaline-6-carboxylic acid], the IC50 on PASK and at PASK (Invitrogen) was < 10 µM throughout.
For the compound `CC[C@H](C)N(C)c1nc2cc(C(=O)O)ccc2nc1-c1ccc(F)cc1` [Example 104, (S)-3-(sec-Butyl(methyl)amino)-2-(4-fluorophenyl)quinoxaline-6-carboxylic acid], the concentration for half-maximal inhibition (IC50) at PASK and on PASK (Invitrogen) was < 10 µM each time.
As for `O=C(O)c1ccc2nc(-c3ccc(F)cc3)c(N3CCCC[C@@H]3C(F)(F)F)nc2c1` [Example 106, 2-(4-Fluorophenyl)-3-[(2R)-2-(trifluoromethyl)piperidin-1-yl]quinoxaline-6-carboxylic acid], the half-inhibitory concentration (IC50) on PASK and on PASK (Invitrogen) was < 10 µM each time.
As to `CN(c1nc2cc(C(=O)O)ccc2nc1-c1ccc(F)cc1)C(C)(C)C` [Example 107, 3-(tert-Butyl(methyl)amino)-2-(4-fluorophenyl)quinoxaline-6-carboxylic acid], the IC50 on PASK and on PASK (Invitrogen) was < 10 µM in each case.
For `CN(c1nc2cc(C(=O)O)ccc2nc1-c1ccc(F)cc1)C1CCCCC1` [Example 108, 3-(Cyclohexyl(methyl)amino)-2-(4-fluorophenyl)quinoxaline-6-carboxylic acid], the half-inhibitory concentration (IC50) at PASK and on PASK (Invitrogen) was < 10 µM each time.
On to `CCN(c1nc2cc(C(=O)O)ccc2nc1-c1ccc(F)cc1)C(C)C` [Example 111, 3-(Ethyl(isopropyl)amino)-2-(4-fluorophenyl)quinoxaline-6-carboxylic acid], for which the 50% inhibitory concentration (IC50) at PASK and on PASK (Invitrogen) was < 10 µM throughout.
Take `CCN(c1nc2cc(C(=O)O)ccc2nc1-c1ccc(F)cc1)C1CCCCC1` [Example 112, 3-[Cyclohexyl(ethyl)amino]-2-(4-fluorophenyl)quinoxaline-6-carboxylic acid]: the half-inhibitory concentration (IC50) on PASK and on PASK (Invitrogen) was < 10 µM each time.
As to `CCN(CC)c1nc2cc(C(=O)O)ccc2nc1-c1ccc(F)cc1` [Example 113, 3-(Diethylamino)-2-(4-fluorophenyl)quinoxaline-6-carboxylic acid], the IC50 at PASK and on PASK (Invitrogen) was < 10 µM in each case.
For the compound `C[C@H]1CCCN1c1nc2cc(C(=O)O)ccc2nc1-c1ccc(F)cc1F` [Example 115, (S)-2-(2,4-Difluorophenyl)-3-(2-methylpyrrolidin-1-yl)quinoxaline-6-carboxylic acid], the IC50 on PASK and at PASK (Invitrogen) was < 10 µM in each case.
In the case of `C[C@H]1CCCCN1c1nc2cc(C(=O)O)ccc2nc1-c1ccc(F)cc1F` [Example 116, (S)-2-(2,4-Difluorophenyl)-3-(2-methylpiperidin-1-yl)quinoxaline-6-carboxylic acid], the concentration for half-maximal inhibition (IC50) at PASK and on PASK (Invitrogen) was < 10 µM each time.
Turning to `CC(C)N(C)c1nc2cc(C(=O)O)c(O)cc2nc1-c1ccc(F)cc1` [Example 120, 2-(4-Fluorophenyl)-7-hydroxy-3-(isopropyl(methyl)amino)quinoxaline-6-carboxylic acid], the IC50 on PASK and on PASK (Invitrogen) was < 10 µM in each case.
Consider `C[C@@H]1CCCCN1c1nc2cc(C(=O)O)ccc2nc1-c1ccc(F)cc1` [Example 121, (R)-2-(4-Fluorophenyl)-3-(2-methylpiperidin-1-yl)quinoxaline-6-carboxylic acid], for which the half-inhibitory concentration (IC50) at PASK and on PASK (Invitrogen) was < 10 µM in each case.
`CN(c1nc2cc(C(=O)O)ccc2nc1-c1ccc(F)cc1)C1CCCC1` [Example 135, 3-(Cyclopentyl(methyl)amino)-2-(4-fluorophenyl)quinoxaline-6-carboxylic acid]: the IC50 on PASK and on PASK (Invitrogen) was < 10 µM throughout.

The record behind these values is patent publication US8912188B2, “Substituted quinoxaline carboxylic acids for the inhibition of PASK” (BioEnergenix, LLC, priority 2011, dated 2014).
